Experimental data from patent US7348351B2, “Substituted 3-alkyl and 3-arylalkyl 1H-indol-1yl acetic acid derivatives as inhibitors of plasminogen activator inhibitor-1 (PAI-1)” (Wyeth, priority 2002, dated 2008).

Assays:
[1] = biological target: T1, recombinant human plasminogen activator inhibitor-1 (Homo sapiens, UniProt P05121); experiment: Primary Screen for the PAI-1 Inhibition (residual tPA activity, chromogenic Spectrozyme-tPA); type: biochemical; conditions: 25 μM test compound; 140 nM PAI-1, 70 nM tPA, pH 6.6
T1 construct: purchased Molecular Innovations, Royal Oak, Mich
T1 sequence (P05121 24-402): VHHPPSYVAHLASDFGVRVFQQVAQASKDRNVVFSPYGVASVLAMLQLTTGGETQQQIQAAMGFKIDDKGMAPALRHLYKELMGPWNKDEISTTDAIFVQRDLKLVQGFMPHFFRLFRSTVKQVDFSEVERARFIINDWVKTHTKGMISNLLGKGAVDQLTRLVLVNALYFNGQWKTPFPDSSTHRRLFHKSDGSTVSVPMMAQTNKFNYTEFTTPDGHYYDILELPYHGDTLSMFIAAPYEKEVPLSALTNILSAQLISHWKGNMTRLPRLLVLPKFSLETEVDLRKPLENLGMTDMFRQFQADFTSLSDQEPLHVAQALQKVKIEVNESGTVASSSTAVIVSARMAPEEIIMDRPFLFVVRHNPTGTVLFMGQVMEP
Procedure: Primary Screen for the PAI-1 Inhibition
Test compounds were dissolved in DMSO at a final concentration of 10 mM, then diluted 100× in physiologic buffer. The inhibitory assay was initiated by the addition of the test compound (1-100 μM final concentration, maximum DMSO concentration of 0.2%) in a pH 6.6 buffer containing 140 nM recombinant human plasminogen activator inhibitor-1 (Molecular Innovations, Royal Oak, Mich.). Following a 1 hour incubation at room temperature, 70 nM of recombinant human tissue plasminogen activator (tPA) was added, and the combination of the test compound, PAI-1 and tPA was incubated for an additional 30 minutes. Following the second incubation, Spectrozyme-tPA (American Diagnostica, Greenwich, Conn.), a chromogenic substrate for tPA, was added and absorbance read at 405 nm at 0 and 60 minutes. Relative PAI-1 inhibition is equal to the residual tPA activity in the presence of test compound and PAI-1. Control treatments included the complete inhibition of tPA by PAI-1 at the molar ratio employed (2:1), and the absence of any effect of the test compound on tPA alone.

[2] = biological target: human PAI-1 (Homo sapiens, UniProt P05121); experiment: Assay for Determining IC50 of Inhibition of PAI-1 (antibody detection of active PAI-1 bound to tPA-coated plate); type: biochemical; conditions: human PAI-1 50 ng/ml, pH 7.5, 33B8 monoclonal antibody detection
human PAI-1, sequence (P05121 24-402): as above
Procedure: Assay for Determining IC50 of Inhibition of PAI-1
This assay was based upon the non-SDS dissociable interaction between tPA and active PAI-1. Assay plates were initially coated with human tPA (10 μg/ml). The test compounds were dissolved in DMSO at 10 mM, then diluted with physiologic buffer (pH 7.5) to a final concentration of 1-50 μM. The test compounds were incubated with human PAI-1 (50 ng/ml) for 15 minutes at room temperature. The tPA-coated plate was washed with a solution of 0.05% Tween 20 and 0.1% BSA, then the plate was blocked with a solution of 3% BSA. An aliquot of the test compound/PAI-1 solution was then added to the tPA-coated plate, incubated at room temperature for 1 hour, and washed. Active PAI-1 bound to the plate was assessed by adding an aliquot of a 1:1000 dilution of the 33B8 monoclonal antibody against human PAI-1, and incubating the plate at room temperature for 1 hour (Molecular Innovations, Royal Oak, Mich.). […] The plate was incubated 45 minutes at room temperature, and color development was determined at OD405 nm. The quantitation of active PAI-1 bound to tPA at varying concentrations of the test compound was used to determine the IC50. Results are analyzed using a logarithmic best-fit equation. The assay sensitivity was 5 ng/ml of human PAI-1 as determined from a standard curve ranging from 0-100 ng/ml.

Row | Compound | inhibition at 25 µM [1] [%] | melting point [°C] | IC50 [2] [µM] | % Inhibition @ 25 μM [1] [%]
1 | O=C(O)Cn1cc(Cc2cc(C(F)(F)F)cc(C(F)(F)F)c2)c2cc(-c3cccc(C(F)(F)F)c3)ccc21 [Example 4, {3-[3,5-bis(triflu romethyl)benzyl]-5-[3-(trifluoromethyl)phenyl]-1H-indol-1-yl}acetic acid] | 35 | 175 to 176 | – | –
2 | CC(c1cn(CC(=O)O)c2ccc(-c3cccc(C(F)(F)F)c3)cc12)C1CCCCC1 (centres unmarked) [Example 8, [3-(1-Cyclohexyl-ethyl)-5-(3-trifluoromethyl-phenyl)-indol-1-yl]acetic acid] | 64 | – | – | –
3 | CC(c1cccs1)c1cn(CC(=O)O)c2ccc(-c3cccc(C(F)(F)F)c3)cc12 (centres unmarked) [Example 7, [3-(1-Thiophen-2-yl-ethyl)-5-(3-trifluoromethyl-phenyl)-indol-1-yl]acetic acid] | 47 | – | – | –
4 | O=C(O)Cn1cc(Cc2cc(C(F)(F)F)cc(C(F)(F)F)c2)c2cc(-c3ccc(OC(F)(F)F)cc3)ccc21 [Example 2] | 31 | 188 to 190 | 15.1 | –
5 | O=C(O)Cn1cc(Cc2cc(C(F)(F)F)cc(C(F)(F)F)c2)c2cc(-c3ccc(Cl)cc3Cl)ccc21 [Example 3, [3-[3,5-bis(trifluoromethyl)benzyl]-5-(2,4-dichlorophenyl)-1H-indol-1-yl]acetic acid] | 100 | 150 to 155 | – | –
6 | CC(C)CC(C)c1cn(CC(=O)O)c2ccc(-c3ccc(Cl)cc3Cl)cc12 (centres unmarked) [Example 10, [5-(2,4-Dichloro-phenyl)-3-(1,3-dimethyl-butyl)-indol-1-yl]-acetic acid] | 48 | – | – | –
7 | CC(C)c1ccc(Cc2cn(CC(=O)O)c3ccc(-c4cccc(C(F)(F)F)c4)cc23)cc1 [Example 9, [3-(4-Isopropyl-benzyl)-5-(3-trifluoromethyl-phenyl)-indol-1-yl]acetic acid] | 26 | – | – | –
8 | CC(c1ccccc1)c1cn(CC(=O)O)c2ccc(-c3cccc(C(F)(F)F)c3)cc12 (centres unmarked) [Example 6, [3-(1-Phenyl-ethyl)-5-(3-trifluoromethyl-phenyl)-indol-1-yl]acetic acid] | 49 | – | – | –
9 | CC(c1cn(CC(=O)O)c2ccc(-c3ccc(Cl)cc3Cl)cc12)C1CCCCC1 (centres unmarked) [Example 12, [3-(1-Cyclohelxy-ethyl)-5-(2,4-dichloro-phenyl)-indol-1-yl]-acetic acid] | – | – | – | 48
10 | CC(c1ccccc1)c1cn(CC(=O)O)c2ccc(-c3ccc(Cl)cc3Cl)cc12 (centres unmarked) [Example 11, [5-(2,4-Dichloro-phenyl)-3-(1-phenyl-ethyl)-indol-1-yl]-acetic acid] | 26 | – | – | –
